Test results from US10633407B2, “14-membered ketolides and methods of their preparation and use” (President and Fellows of Harvard College, priority 2014, dated 2020).
In brackets after ≈: the same amount, converted by molar mass. Like-named read-outs stand apart in the source and are kept apart here.

Experiments:
Assay in all cases: CLSI broth dilution MIC determination
Assay type in all cases: cell-based
E. coli ATCC 25922 = system: E. coli ATCC 25922
Description: (§1) MIC data was collected for the novel macrolides that this platform has produced against over 21 unique strains of B. subtilis, E. coli, S. aureus, S. pneumoniae, and H. influenzae, including several multidrug-resistant strains, with a special focus on macrolide resistant mechanisms (vide supra). Azithromycin (Azithro) and Solithromycin (Solithro) were included as a control macrolides in many cases. CLSI standard procedures for broth dilution MIC determination were used. […] These genotypes can be constitutive or inducible.

[1] = system: E. coli MP-532 clinical-cErmB; settings: Escherichia coli
Description: as §1

E. coli MP-541 clinical = settings: Escherichia coli, MP541CLINICAL, read-out: MIC
Description: as §1

[2] = system: E. coli MP-9 ATCC25922:tolC; settings: Escherichia coli, ATCC25922
Description: as §1

[3] = system: S. aureus (MRSA) MP-513 ST-228 cErm (Clinical-cErm); settings: Staphylococcus aureus, read-out: MIC
Description: as §1

S. aureus ATCC 29213 = system: S. aureus ATCC 29213
Description: as §1

[4] = system: S. aureus MP-17 ATCCBAA-977 (BAA 977 iErm); settings: Staphylococcus aureus; S. aureus MP-17, ATCCBAA-977, iErm; read-out: MIC
Description: as §1

S. aureus MRSA: USA300 = system: S. aureus MRSA: USA300
Description: as §1

A. baumannii ATCC 19606 = system: A. baumannii ATCC 19606
K. pneumoniae ATCC 10031 = system: K. pneumoniae ATCC 10031
P. aeruginosa ATCC 27853 = system: P. aeruginosa ATCC 27853
P. aeruginosa MP-7 PAO1 = settings: Pseudomonas aeruginosa, read-out: MIC
[5] = system: P. aeruginosa MP-8 PAO1:mex (mex-oprM-deletion); settings: Pseudomonas aeruginosa, PAO1
[6] = system: K. pneumoniae MP-548 clinical; settings: Klebsiella pneumoniae, MP548CLINICAL, read-out: MIC
[7] = system: K. pneumoniae MP-546 Clinical-MDR; settings: Klebsiella pneumoniae, read-out: MIC
[8] = system: A. baumannii MP-577 Clinical-AZT low; settings: Acinetobacter baumannii, read-out: MIC
[9] = system: A. baumannii MP-576 Clinical-MDR; settings: Acinetobacter baumannii, read-out: MIC
E. coli CTX-M-14 = settings: Gram-negative
Description: as §1

E. coli NDM-1 = settings: Gram-negative
Description: as §1

E. coli TEM-1 = settings: E. coli TEM-1; Gram-negative
Description: as §1

H. influenzae ATCC49247 = settings: Gram-negative
Description: as §1

K. pneumoniae TEM-10 = settings: Gram-negative
Description: as §1

S. aureus MRSA: USA100 = settings: S. aureus MRSA: USA100; Gram-positive
Description: as §1

S. aureus USA600, GISA = settings: S. aureus USA600, GISA; Gram-positive
Description: as §1

S. aureus erm A genotype = settings: S. aureus erm A genotype; Gram-positive
Description: as §1

S. pneumoniae ATCC 49619 = settings: S. pneumoniae ATCC 49619; Gram-positive
Description: as §1

[10] = system: S. pneumoniae mef A genotype (second strain so labelled); settings: Gram-positive
Description: as §1

S. pyogenes ATCC 19615 = settings: S. pyogenes ATCC 19615; Gram-positive
[11] = system: S. pyogenes Macrolide-resistant; settings: S. pyogenes Macrolide-resistant; Gram-positive
E. faecalis ATCC 29212 = settings: E. faecalis ATCC 29212; Gram-positive
[12] = system: E. faecalis Vancomycin-resistant; settings: E. faecalis Vancomycin-resistant; Gram-positive
[13] = system: A. baumannii imipenem-resistant; settings: Gram-negative
[14] = system: A. baumannii chromosomal class C; settings: Gram-negative
A. baumannii IMP-4 = settings: Gram-negative
K. pneumoniae KPC-2 = settings: Gram-negative
K. pneumoniae SHV-12 = settings: Gram-negative
[15] = system: P. aeruginosa HPA101-1477; settings: Gram-negative
[16] = system: H. influenzae Erythro >4, Azithro 1; settings: H. influenzae Erythro >4, Azithro 1; Gram-negative
Description: as §1, with “Azithromycin (Azithro) and Solithromycin (Solithro) were included as a control macrolides in many cases.” left out

How did the MIC (E. coli ATCC 25922; Escherichia coli, ATCC25922, E. coli ATCC 25922 (MP-4), read-out: MIC) turn out when CC[C@H]1OC(=O)[C@@](C)(F)C(=O)[C@H](C)[C@@H](O[C@@H]2OC(C)CC(N(C)C)C2O)[C@](C)(OC)C[C@@H](C)C(=O)[C@H](C)[C@H]2N(CC#CCn3cc(-c4cc(OC)ccn4)nn3)C(=O)O[C@]12C (some centres unmarked) [FSM-100576] was run?
The MIC was 32 µg/mL (≈ 37.3 µM).

And the MIC [1]?
Its MIC is greater than 32 µg/mL.

And the MIC (E. coli MP-541 clinical)?
Its MIC is 32 µg/mL (≈ 37.3 µM).

And the MIC [2]?
The MIC was 2 µg/mL (≈ 2.33 µM).

What about the MIC [3] of the same compound?
The MIC was greater than 32 µg/mL.

What about the MIC (S. aureus ATCC 29213; Staphylococcus aureus, ATCC29213, S. aureus ATCC 29213 (MP-12), read-out: MIC) of the same compound?
The MIC was 0.125 µg/mL (≈ 0.146 µM).

What about the MIC [4] of the same compound?
Its MIC is 0.125 µg/mL (≈ 0.146 µM).

And the MIC (S. aureus MRSA: USA300; Staphylococcus aureus, S. aureus MRSA: USA300 (MP-549, msr(a)), read-out: MIC)?
The MIC was 0.25 µg/mL (≈ 0.292 µM).

And the MIC (A. baumannii ATCC 19606; Acinetobacter baumannii, ATCC19606, A. baumannii ATCC 19606 (MP-15), read-out: MIC)?
The MIC was 16 µg/mL (≈ 18.7 µM).

What about the MIC (K. pneumoniae ATCC 10031; Klebsiella pneumoniae, ATCC10031, K. pneumoniae ATCC 10031 (MP-14), read-out: MIC) of the same compound?
Its MIC is 4 µg/mL (≈ 4.67 µM).

And the MIC (P. aeruginosa ATCC 27853; Pseudomonas aeruginosa, ATCC27853, P. aeruginosa ATCC 27853 (MP-3), read-out: MIC)?
Its MIC is greater than 32 µg/mL.

And the MIC (P. aeruginosa MP-7 PAO1)?
Its MIC is greater than 32 µg/mL.

And the MIC [5]?
Its MIC is 8 µg/mL (≈ 9.33 µM).

And the MIC [6]?
Its MIC is greater than 32 µg/mL.

And the MIC [7]?
The MIC was greater than 32 µg/mL.

What about the MIC [8] of the same compound?
Its MIC is greater than 32 µg/mL.

And the MIC [9]?
The MIC was greater than 32 µg/mL.

Which MIC (E. coli ATCC 25922; E. coli ATCC 25922, Gram-negative) does the source give for CC[C@H]1OC(=O)[C@@](C)(F)C(=O)[C@H](C)[C@@H](O[C@@H]2OC(C)CC(N(C)C)C2O)[C@](C)(OC)C[C@@H](C)C(=O)[C@H](C)[C@H]2N(C/C=C/Cn3cc(-c4ccccn4)nn3)C(=O)O[C@]12C (some centres unmarked) [FSM-100383] here?
Its MIC is 8 µg/mL (≈ 9.65 µM).

And the MIC (E. coli CTX-M-14)?
The MIC was greater than 32 µg/mL.

And the MIC (E. coli NDM-1)?
The MIC was 32 µg/mL (≈ 38.6 µM).

And the MIC (E. coli TEM-1)?
The MIC was 16 µg/mL (≈ 19.3 µM).

What about the MIC (H. influenzae ATCC49247) of the same compound?
Its MIC is 0.5 µg/mL (≈ 0.603 µM).

And the MIC (K. pneumoniae TEM-10)?
The MIC was 16 µg/mL (≈ 19.3 µM).

And the MIC (S. aureus ATCC 29213; S. aureus ATCC 29213, Gram-positive)?
The MIC was less than 0.0312 µg/mL.

What about the MIC (S. aureus MRSA: USA100) of the same compound?
The MIC was greater than 32 µg/mL.

And the MIC (S. aureus MRSA: USA300; S. aureus MRSA: USA300, Gram-positive)?
Its MIC is 0.5 µg/mL (≈ 0.603 µM).

And the MIC (S. aureus USA600, GISA)?
The MIC was greater than 32 µg/mL.

What about the MIC (S. aureus erm A genotype) of the same compound?
The MIC was greater than 32 µg/mL.

What about the MIC (S. pneumoniae ATCC 49619) of the same compound?
The MIC was less than 0.0312 µg/mL.

What about the MIC [10] of the same compound?
The MIC was less than 0.0312 µg/mL.

And the MIC (S. pyogenes ATCC 19615)?
The MIC was less than 0.0312 µg/mL.

And the MIC [11]?
The MIC was less than 0.0312 µg/mL.

What about the MIC (E. faecalis ATCC 29212) of the same compound?
Its MIC is less than 0.0312 µg/mL.

What about the MIC [12] of the same compound?
Its MIC is greater than 32 µg/mL.

What about the MIC (A. baumannii ATCC 19606; A. baumannii ATCC 19606, Gram-negative) of the same compound?
Its MIC is 4 µg/mL (≈ 4.83 µM).

And the MIC [13]?
The MIC was 8 µg/mL (≈ 9.65 µM).

What about the MIC [14] of the same compound?
The MIC was 8 µg/mL (≈ 9.65 µM).

What about the MIC (A. baumannii IMP-4) of the same compound?
The MIC was greater than 32 µg/mL.

And the MIC (K. pneumoniae ATCC 10031; K. pneumoniae ATCC 10031, Gram-negative)?
The MIC was 2 µg/mL (≈ 2.41 µM).

What about the MIC (K. pneumoniae KPC-2) of the same compound?
The MIC was greater than 32 µg/mL.

What about the MIC (K. pneumoniae SHV-12) of the same compound?
Its MIC is greater than 32 µg/mL.

What about the MIC (P. aeruginosa ATCC 27853; P. aeruginosa ATCC 27853, Gram-negative) of the same compound?
Its MIC is greater than 32 µg/mL.

What about the MIC [15] of the same compound?
The MIC was greater than 32 µg/mL.

And the MIC [16]?
Its MIC is 0.5 µg/mL (≈ 0.603 µM).
